We go through three substances from patent US8541361B2, “Composition” (DSM IP Assets B.V., priority 2009, dated 2013).

Square brackets hold non-standard residues; d marks the D form. * marks the point of attachment. Palmitoyl = CCCCCCCCCCCCCCCC(=O)*; Dab = NCC[C@H](N)C(=O)O

The nature of the series: Storage stability: normalized peptide content by analytical HPLC of glycerin/water solutions in glass vials, with or without salt. To be noted: 40° C., glass vial. Format: physicochemical. As to the method: Solutions of 127 mmol/kg H29C14—NH—CO-Dab-Val-Dab-OH in a Glycerin water mixture (˜2.3:1) containing salt concentrations of 382 mmol/kg have been prepared, distributed to 3 g per 10 ml glass vial and stored at 40° C. and 25° C. After various times, samples have been analyzed for their peptide content with analytical HPLC. The results have been normalized to the content at the preparation time to 100%.
Solutions of 119 mmol/kg Palm-Lys-Val-Lys-OH (SEQ ID NO:2) in Glycerin water mixture (˜2.3:1) containing salt concentrations of one or three equivalents as indicated below have been prepared, distributed to 3 g per 10 ml glass vial and stored at 40° C. After various times, samples have been analyzed for their peptide content with analytical HPLC. The results have been normalized to the content at the preparation time to 100%.
Solutions of 246 mmol/kg Palm-Lys-Val-Dab-OH (SEQ ID NO:5) in Glycerin water mixture (˜2.3:1) containing salt concentrations of one or three equivalents as indicated below have been prepared, distributed to 3 g per 10 ml glass vial and stored at 40° C. After various times, samples have been analyzed for their peptide content with analytical HPLC. The results have been normalized to the content at the preparation time to 100%.

Turning to H29C14—NH—CO-Dab-Val-Dab-OH, the normalized peptide content is on record as 100.0% (3 eq. CaCl2 (382 mmol/kg), t0, 127 mmol/kg peptide in Glycerin water); 92.2% (3 eq. CaCl2, 1 Month, 127 mmol/kg peptide in Glycerin water); 96.9% (3 eq. CaCl2, 2 Month, 127 mmol/kg peptide in Glycerin water); 101.1% (3 eq. CaCl2, 3 Month, 127 mmol/kg peptide in Glycerin water); 95.4% (3 eq. CaCl2, 4 Month, 127 mmol/kg peptide in Glycerin water); 89.0% (3 eq. CaCl2, 5 Month, 127 mmol/kg peptide in Glycerin water). Also, the normalized peptide content (3 eq. CaCl2, 6 Month, 127 mmol/kg peptide in Glycerin water) is listed as 88.9%; the normalized peptide content (3 eq. LiCl (382 mmol/kg), t0, 127 mmol/kg peptide in Glycerin water) turned out to be 100.0%; the normalized peptide content (3 eq. LiCl, 1 Month, 127 mmol/kg peptide in Glycerin water) is 93.1%; the normalized peptide content (3 eq. LiCl, 2 Month, 127 mmol/kg peptide in Glycerin water) was determined as 95.3%; the normalized peptide content (3 eq. LiCl, 3 Month, 127 mmol/kg peptide in Glycerin water) is listed as 99.8%; the normalized peptide content (3 eq. LiCl, 4 Month, 127 mmol/kg peptide in Glycerin water) was determined as 96.4%. Further, the normalized peptide content runs as follows: (3 eq. LiCl, 5 Month, 127 mmol/kg peptide in Glycerin water) 90.7%; (3 eq. LiCl, 6 Month, 127 mmol/kg peptide in Glycerin water) 87.6%; (3 eq. MgCl2 (382 mmol/kg), t0, 127 mmol/kg peptide in Glycerin water) 100.0%; (3 eq. MgCl2, 1 Month, 127 mmol/kg peptide in Glycerin water) 93.7%; (3 eq. MgCl2, 2 Month, 127 mmol/kg peptide in Glycerin water) 96.5%; (3 eq. MgCl2, 3 Month, 127 mmol/kg peptide in Glycerin water) 100.0%. In addition, the normalized peptide content turned out to be 94.9% (3 eq. MgCl2, 4 Month, 127 mmol/kg peptide in Glycerin water); 89.7% (3 eq. MgCl2, 5 Month, 127 mmol/kg peptide in Glycerin water); 90.7% (3 eq. MgCl2, 6 Month, 127 mmol/kg peptide in Glycerin water); 100.0% (3 eq. ZnCl2 (382 mmol/kg), t0, 127 mmol/kg peptide in Glycerin water); 88.5% (3 eq. ZnCl2, 1 Month, 127 mmol/kg peptide in Glycerin water); 93.5% (3 eq. ZnCl2, 2 Month, 127 mmol/kg peptide in Glycerin water). Further, the normalized peptide content reads like this: (3 eq. ZnCl2, 3 Month, 127 mmol/kg peptide in Glycerin water) 98.7%; (3 eq. ZnCl2, 4 Month, 127 mmol/kg peptide in Glycerin water) 96.5%; (3 eq. ZnCl2, 5 Month, 127 mmol/kg peptide in Glycerin water) 88.1%; (3 eq. ZnCl2, 6 Month, 127 mmol/kg peptide in Glycerin water) 92.3%; (No salt, 1 Month, 127 mmol/kg peptide in Glycerin water) 106.2%; (No salt, 2 Month, 127 mmol/kg peptide in Glycerin water) 91.7%. Further, the normalized peptide content (No salt, 3 Month, 127 mmol/kg peptide in Glycerin water) came to 18.9%; the normalized peptide content (No salt, 4 Month, 127 mmol/kg peptide in Glycerin water) came out at 11.5%; the normalized peptide content (No salt, 5 Month, 127 mmol/kg peptide in Glycerin water) is 10.1%; the normalized peptide content (No salt, t0, 127 mmol/kg peptide in Glycerin water (~2.3:1)) was 100.0%.
On to “Palm-Lys-Val-Dab-OH (Palmitoyl-Lys-Val-[Dab]-OH; SMILES CCCCCCCCCCCCCCCC(=O)N[C@@H](CCCCN)C(=O)N[C@H](C(=O)N[C@@H](CCN)C(=O)O)C(C)C) [peptide substituted with a lipophilic moiety; Palm means palmitoyl and Dab means 2,4-diaminobutyroyl]”, for which the normalized peptide content is on record as 71.7% (1 eq MgCl2, 1 Month, 246 mmol/kg peptide in Glycerin water); 100.0% (1 eq MgCl2, t0, 246 mmol/kg peptide in Glycerin water); 75.9% (3 eq LiCl, 1 Month, 246 mmol/kg peptide in Glycerin water); 100.0% (3 eq LiCl, t0, 246 mmol/kg peptide in Glycerin water); 70.5% (3 eq MgCl2, 1 Month, 246 mmol/kg peptide in Glycerin water); 100.0% (3 eq MgCl2, t0, 246 mmol/kg peptide in Glycerin water). The normalized peptide content reads like this: (3 eq NaCl, 1 Month, 246 mmol/kg peptide in Glycerin water) 75.7%; (3 eq NaCl, t0, 246 mmol/kg peptide in Glycerin water) 100.0%; (No salt, 1 Month, 246 mmol/kg peptide in Glycerin water) 44.2%; (No salt, t0, 246 mmol/kg peptide in Glycerin water (~2.3:1)) 100.0%.
Regarding “Palm-Lys-Val-Lys-OH (Palmitoyl-Lys-Val-Lys-OH; SMILES CCCCCCCCCCCCCCCC(=O)N[C@@H](CCCCN)C(=O)N[C@H](C(=O)N[C@@H](CCCCN)C(=O)O)C(C)C) [peptide substituted with a lipophilic moiety; Palm means palmitoyl]”, the normalized peptide content (1 eq MgCl2, 1 Month, 119 mmol/kg peptide in Glycerin water) came to 81.4%; the normalized peptide content (1 eq MgCl2, t0, 119 mmol/kg peptide in Glycerin water) came to 100.0%; the normalized peptide content (3 eq LiCl, 1 Month, 119 mmol/kg peptide in Glycerin water) came out at 83.6%; the normalized peptide content (3 eq LiCl, t0, 119 mmol/kg peptide in Glycerin water) amounted to 100.0%; the normalized peptide content (3 eq MgCl2, 1 Month, 119 mmol/kg peptide in Glycerin water) is 87.4%; the normalized peptide content (3 eq MgCl2, t0, 119 mmol/kg peptide in Glycerin water) came to 100.0%. The normalized peptide content by setting is: (3 eq NaCl, 1 Month, 119 mmol/kg peptide in Glycerin water) 82.0%; (3 eq NaCl, t0, 119 mmol/kg peptide in Glycerin water) 100.0%; (No salt, 1 Month, 119 mmol/kg peptide in Glycerin water) 76.4%; (No salt, t0, 119 mmol/kg peptide in Glycerin water (~2.3:1)) 100.0%.
